Data set [1] relates to Staphylococcus aureus. The experiment in a line: Antibacterial activity against methicillin resistant Staphylococcus aureus ATCC BAA-1556 incubated for 24 hrs by microtiter plate method. It is filed as functional.
The subject of data set [2] is Pseudomonas aeruginosa. As to the kind of experiment: Antibacterial activity against Pseudomonas aeruginosa ATCC 27883 incubated for 24 hrs by microtiter plate method. The format is functional.
A further data set concerns Erythrocyte. The experiment in a line: Hemolytic activity in human RBC assessed as hemolysis incubated for 2 hrs by spectrophotometer analysis. It is filed as toxicity, cell-based. The settings on record: erythrocyte, 2 h.
The test system of data set [3] is Staphylococcus aureus. The experiment in a line: Antibacterial activity against Staphylococcus aureus ATCC 29213 incubated for 24 hrs by microtiter plate method. The format is functional.
Data set [4] relates to Escherichia coli. As to the kind of experiment: Antibacterial activity against Escherichia coli ATCC 25922 incubated for 24 hrs by microtiter plate method. It is filed as functional. The settings on record: 24 h.
The subject of a further data set is Acinetobacter baumannii. As to the kind of experiment: Antibacterial activity against ciprofloxacin resistance Acinetobacter baumannii ATCC BAA1605 incubated for 24 hrs by microtiter plate method. The format is functional.
Data set [5] relates to Escherichia coli. As to the kind of experiment: Antibacterial activity against Escherichia coli ATCC 25922 after 24 hrs in presence of 4.5 mM of KCl at by microtiter plate method. It is filed as functional.
Data set [6] has as its system Escherichia coli. The experiment in a line: Bactericidal activity against Escherichia coli ATCC BAA-2452 assessed as reduction of bacterial growth at MIC by counting formed colonies. It is filed as functional, organism-based. Particulars: time <= 4.0 hrs, TDE = time-dependent effect.
The subject of data set [7] is Escherichia coli. As to the kind of experiment: Bactericidal activity against Escherichia coli ATCC BAA-2452 assessed as reduction of bacterial growth at 4 times MIC by counting formed colonies. It is filed as functional, organism-based. The settings on record: time <= 4.0 hrs, TDE = time-dependent effect.
The test system of data set [8] is Escherichia coli. The experiment in a line: Antibacterial activity against Escherichia coli ATCC 25922 after 24 hrs in presence of fetal bovine serum by microtiter plate method. It is filed as functional.
In data set [9] the test system is Escherichia coli. As to the kind of experiment: Antibacterial activity against Escherichia coli ATCC 25922 after 24 hrs in presence of 150 mM NaCl by microtiter plate method. The format is functional.
Data set [10] relates to Staphylococcus aureus. The experiment in a line: Antibacterial activity against methicillin resistant Staphylococcus aureus ATCC BAA-1556 incubated for 24 hrs. It is filed as functional.
Data set [11] concerns Staphylococcus aureus. The experiment in a line: Bactericidal activity against methicillin resistant Staphylococcus aureus ATCC BAA-1556 assessed as reduction of bacterial growth at MIC by counting formed colonies. It is filed as functional, organism-based. The settings on record: time <= 4.0 hrs, TDE = time-dependent effect.
For data set [12], the system named is Staphylococcus aureus. As to the kind of experiment: Antibacterial activity against methicillin resistant Staphylococcus aureus ATCC BAA-1556 after 24 hrs in presence of 6 mM of NH4Cl by microtiter plate method. The format is functional.
Data set [13] has as its system Escherichia coli. As to the kind of experiment: Antibacterial activity against Escherichia coli ATCC 25922 assessed as reduction in microbial growth after 24 hrs in presence of 6 mM of NH4Cl at by microtiter plate method. The format is functional.
Data set [14] concerns Staphylococcus aureus. The experiment in a line: Antibacterial activity against methicillin resistant Staphylococcus aureus ATCC BAA-1556 after 24 hrs in presence of 2 mM of CaCl2 by microtiter plate method. The format is functional.
The subject of data set [15] is Klebsiella pneumoniae. As to the kind of experiment: Antibacterial activity against Klebsiella pneumoniae ATCC 13883 […] incubated for 24 hrs by microtiter plate method. It is filed as functional.
The test system of data set [16] is Staphylococcus aureus. The experiment in a line: Antibacterial activity against methicillin resistant Staphylococcus aureus ATCC BAA-1556 after 24 hrs in presence of 150 mM of NaCl by microtiter plate method. The format is functional.
The test system of data set [17] is Pseudomonas aeruginosa. As to the kind of experiment: Antibacterial activity against imipenem resistant Pseudomonas aeruginosa ATCC BAA-1744 incubated for 24 hrs by microtiter plate method. It is filed as functional.
The subject of data set [18] is Staphylococcus aureus. The experiment in a line: Bactericidal activity against methicillin resistant Staphylococcus aureus ATCC BAA-1556 assessed as reduction of bacterial growth at 4 times MIC by counting formed colonies. The format is functional, organism-based. Particulars: time <= 4.0 hrs, TDE = time-dependent effect.
The subject of data set [19] is Staphylococcus aureus. The experiment in a line: Bactericidal activity against methicillin resistant Staphylococcus aureus ATCC BAA-1556 assessed as time required for complete reduction of bacterial growth at MIC by counting formed colonies. It is filed as functional.
The subject of data set [20] is Staphylococcus aureus. The experiment in a line: Antibacterial activity against methicillin resistant Staphylococcus aureus ATCC BAA-1556 after 24 hrs in presence of fetal bovine serum by microtiter plate method. The format is functional.
For data set [21], the system named is Pseudomonas aeruginosa. As to the kind of experiment: Antibacterial activity against Pseudomonas aeruginosa ATCC 10145 incubated for 24 hrs by microtiter plate method. The format is functional.
Data set [22] relates to Escherichia coli. The experiment in a line: Antibacterial activity against Escherichia coli ATCC 25922 incubated for 24 hrs. The format is functional.
The subject of data set [23] is Klebsiella pneumoniae. The experiment in a line: Antibacterial activity against carbapenem-resistant Klebsiella pneumoniae ATCC BAA-2470 incubated for 24 hrs by microtiter plate method. It is filed as functional.
The subject of data set [24] is Staphylococcus aureus. As to the kind of experiment: Antibacterial activity against methicillin resistant Staphylococcus aureus ATCC BAA-1556 after 24 hrs in presence of 1 mM of by microtiter plate method. The format is functional.
For data set [25], the system named is Staphylococcus aureus. As to the kind of experiment: Antibacterial activity against methicillin resistant Staphylococcus aureus ATCC BAA-1556 after 24 hrs in presence of 4.5 mM of KCl by microtiter plate method. It is filed as functional.
Data set [26] deals with Escherichia coli. The experiment in a line: Antibacterial activity against Escherichia coli ATCC 25922 after 24 hrs in presence of 2 mM CaCl2 at by microtiter plate method. It is filed as functional.
In data set [27] the test system is Staphylococcus aureus. As to the kind of experiment: Bactericidal activity against methicillin resistant Staphylococcus aureus ATCC BAA-1556 assessed as time required for complete reduction of bacterial growth at 4 times MIC by counting formed colonies. It is filed as functional.

≈ marks a conversion by molar mass, not a printed value. Calls of active or inactive are those of the source.

For `N=C(N)NCCC[C@@H]1NC(=O)[C@H](CCCNC(=N)N)NC(=O)[C@H](C(c2ccccc2)c2ccccc2)NC(=O)[C@H](C(c2ccccc2)c2ccccc2)NC(=O)[C@H](CCCNC(=N)N)NC(=O)[C@H](CCCNC(=N)N)NC(=O)[C@H](C(c2ccccc2)c2ccccc2)NC1=O` (stereo in doubt; 17C), the minimum inhibitory concentration (MIC) (as a rule, the least concentration at which growth counts as inhibited) against Staphylococcus aureus [1] (24 h) is 12.5 µg/mL (≈ 9.66 µM); with Pseudomonas aeruginosa [2] (24 h), >100 µg/mL. For the same molecule, the HC50 (usually the concentration giving 50% haemolysis) in the data set on Erythrocyte was found to be 145 µg/mL.
For `N=C(N)NCCC[C@@H]1NC(=O)[C@H](CCCNC(=N)N)NC(=O)[C@H](Cc2ccc3ccccc3c2)NC(=O)[C@H](Cc2ccc3ccccc3c2)NC(=O)[C@H](CCCNC(=N)N)NC(=O)[C@H](CCCNC(=N)N)NC(=O)[C@H](Cc2ccc3ccccc3c2)NC1=O` (stereo in doubt; 19C), the minimum inhibitory concentration (MIC) against Staphylococcus aureus [3] came to 6.2 µg/mL (≈ 5.1 µM); in the data set with Staphylococcus aureus [1], 6.2 µg/mL (≈ 5.1 µM); against Pseudomonas aeruginosa [2] (24 h) it was 50 µg/mL (≈ 41.1 µM); in the data set with Escherichia coli [4], 50 µg/mL (≈ 41.1 µM). The concentration for 50% haemolysis (HC50) in the data set with Erythrocyte is 110 µg/mL.
Regarding `O=C(O)c1cn(C2CC2)c2cc(N3CCNCC3)c(F)cc2c1=O` [CIPROFLOXACIN], the MIC against Acinetobacter baumannii came to 0.7 µg/mL (≈ 2.11 µM); in the data set with Escherichia coli [5], 0.3 µg/mL; in the data set with Staphylococcus aureus [3] (Staphylococcus aureus, ATCC 29213, read-out: MIC), 1.5 µg/mL (≈ 4.53 µM); with Escherichia coli [8] it was 0.3 µg/mL; in the data set with Staphylococcus aureus [1] (Staphylococcus aureus, ATCC BAA-1556, 24 h, read-out: MIC), 3.1 µg/mL (≈ 9.36 µM); with Escherichia coli [9], 0.3 µg/mL. Also, the minimal inhibitory concentration (MIC) in the data set on Staphylococcus aureus [12] stood at 0.7 µg/mL; in the data set on Escherichia coli [13], 0.3 µg/mL; with Pseudomonas aeruginosa [2] (Pseudomonas aeruginosa, ATCC 27883, read-out: MIC), 0.7 µg/mL (≈ 2.11 µM); with Staphylococcus aureus [14] it was 1.5 µg/mL; against Klebsiella pneumoniae [15], 1.5 µg/mL (≈ 4.53 µM); in the data set on Staphylococcus aureus [16] it was 1.5 µg/mL. Also, the MIC is 0.7 µg/mL (≈ 2.11 µM) against Pseudomonas aeruginosa [17]; 1.5 µg/mL with Staphylococcus aureus [20]; 0.7 µg/mL (≈ 2.11 µM) in the data set on Pseudomonas aeruginosa [21]; 0.7 µg/mL (≈ 2.11 µM) in the data set on Klebsiella pneumoniae [23]; 1.5 µg/mL in the data set on Staphylococcus aureus [24]; 1.5 µg/mL with Staphylococcus aureus [25]. For the same molecule, the MIC with Escherichia coli [26] turned out to be 0.3 µg/mL. Also, the Activity result in the data set on Escherichia coli [6], in the data set with Escherichia coli [7], in the data set on Staphylococcus aureus [11] and in the data set on Staphylococcus aureus [18] was “Tde” in each case. Further, the MBC (as a rule, the smallest concentration meeting the test's criterion for killing) in the data set with Staphylococcus aureus [10] turned out to be 50 µg/mL (≈ 151 µM); against Escherichia coli [22], 12.5 µg/mL (≈ 37.7 µM). The outcome in the data set on Staphylococcus aureus [19] and with Staphylococcus aureus [27] was Active.

(Values after ChEMBL document CHEMBL5154681, “Small Amphiphilic Peptides: Activity Against a Broad Range of Drug-Resistant Bacteria and Structural Insight into Membranolytic Properties” (J Med Chem, 2022).)
